Data reported in ChEMBL document CHEMBL2146473 (Bioorg Med Chem, 2012).
Blank lines part the entries; values can stand above or below the compound they belong to. Calls of active or inactive are those of the source. No cut-off for these calls is given here.

Legend:
[1] = target: Dipeptidyl peptidase 4 (Rattus norvegicus, UniProt P14740); format: cell-free, Plasma
Description: Inhibition of DPP4 in rat plasma using GLY-Pro-MCA as substrate after 60 mins by fluorescence assay

[2] = species on record: Rattus norvegicus; test: animal or person; format: functional; settings: Wistar, Plasma, po, 0.5 h
[3] = species on record: Rattus norvegicus; test: animal or person; format: functional; settings: Wistar, Plasma, po, 9 h
[4] = AUC (0 to infinity) in monkey at 1 mg/kg, po; format: ADME, organism-based, Macaca mulatta; set-up: time infinity, dose 1 mg/kg, route oral; settings: rhesus monkey, plasma
[5] = Oral bioavailability in rat at 0.1 mg/kg; format: ADME, organism-based; settings: in vivo
[6] = AUC (0 to infinity) in monkey at 0.1 mg/kg, po; format: ADME, organism-based, Macaca mulatta; set-up: time infinity, dose 0.1 mg/kg, route oral; settings: rhesus monkey, plasma
[7] = AUC (0 to infinity) in monkey at 0.3 mg/kg, po; format: ADME, organism-based, Macaca mulatta; set-up: time infinity, dose 0.3 mg/kg, route oral; settings: rhesus monkey, plasma
[8] = AUC (0 to infinity) in rat at 1 mg/kg, po; format: ADME, organism-based; set-up: time infinity, dose 1 mg/kg, route oral; settings: plasma
[9] = Tmax in rat at 0.1 mg/kg, po; format: ADME, organism-based; set-up: dose 0.1 mg/kg, route oral; settings: in vivo
[10] = Tmax in rat at 0.3 mg/kg, po; format: ADME, organism-based; set-up: dose 0.3 mg/kg, route oral; settings: in vivo
[11] = Tmax in rat at 1 mg/kg, po; format: ADME, organism-based; set-up: dose 1 mg/kg, route oral; settings: in vivo
[12] = Tmax in monkey at 0.1 mg/kg, po; format: ADME, organism-based, Macaca mulatta; set-up: dose 0.1 mg/kg, route oral; settings: rhesus monkey, in vivo
[13] = Tmax in monkey at 0.3 mg/kg, po; format: ADME, organism-based, Macaca mulatta; set-up: dose 0.3 mg/kg, route oral; settings: rhesus monkey, in vivo
[14] = Tmax in monkey at 1 mg/kg, po; format: ADME, organism-based, Macaca mulatta; set-up: dose 1 mg/kg, route oral; settings: rhesus monkey, in vivo
[15] = Cmax in rat at 0.1 mg/kg, po; format: ADME, organism-based; set-up: dose 0.1 mg/kg, route oral; settings: in vivo
[16] = Cmax in rat at 0.3 mg/kg, po; format: ADME, organism-based; set-up: dose 0.3 mg/kg, route oral; settings: in vivo
[17] = Cmax in rat at 1 mg/kg, po; format: ADME, organism-based; set-up: dose 1 mg/kg, route oral; settings: in vivo
[18] = Cmax in monkey at 0.1 mg/kg, po; format: ADME, organism-based, Macaca mulatta; set-up: dose 0.1 mg/kg, route oral; settings: rhesus monkey, in vivo
[19] = Cmax in monkey at 0.3 mg/kg, po; format: ADME, organism-based, Macaca mulatta; set-up: dose 0.3 mg/kg, route oral; settings: rhesus monkey, in vivo
[20] = Cmax in monkey at 1 mg/kg, po; format: ADME, organism-based, Macaca mulatta; set-up: dose 1 mg/kg, route oral; settings: rhesus monkey, in vivo
[21] = Terminal half life in rat at 0.1 mg/kg, po; format: ADME, organism-based; set-up: dose 0.1 mg/kg, route oral; settings: in vivo, read-out: beta t1/2 (converted)
[22] = Terminal half life in rat at 0.3 mg/kg, po; format: ADME, organism-based; set-up: dose 0.3 mg/kg, route oral; settings: in vivo, read-out: beta t1/2 (converted)
[23] = Terminal half life in rat at 1 mg/kg, po; format: ADME, organism-based; set-up: dose 1 mg/kg, route oral; settings: in vivo, read-out: beta t1/2 (converted)
[24] = Terminal half life in monkey at 0.1 mg/kg, po; format: ADME, organism-based, Macaca mulatta; set-up: dose 0.1 mg/kg, route oral; settings: rhesus monkey, in vivo, read-out: beta t1/2 (converted)
[25] = Terminal half life in monkey at 0.3 mg/kg, po; format: ADME, organism-based, Macaca mulatta; set-up: dose 0.3 mg/kg, route oral; settings: rhesus monkey, in vivo, read-out: beta t1/2 (converted)
[26] = Terminal half life in monkey at 1 mg/kg, po; format: ADME, organism-based, Macaca mulatta; set-up: dose 1 mg/kg, route oral; settings: rhesus monkey, in vivo, read-out: beta t1/2 (converted)
[27] = AUC (0 to infinity) in rat at 0.1 mg/kg, po; format: ADME, organism-based; set-up: dose 0.1 mg/kg, route oral, time infinity; settings: plasma
[28] = AUC (0 to infinity) in rat at 0.3 mg/kg, po; format: ADME, organism-based; set-up: time infinity, dose 0.3 mg/kg, route oral; settings: plasma
[29] = Oral bioavailability in rat at 0.3 mg/kg; format: ADME, organism-based; settings: in vivo
[30] = Oral bioavailability in rat at 1 mg/kg; format: ADME, organism-based; settings: in vivo
[31] = Oral bioavailability in monkey at 0.1 mg/kg; format: ADME, organism-based, Macaca mulatta; settings: rhesus monkey, in vivo
[32] = Oral bioavailability in monkey at 0.3 mg/kg; format: ADME, organism-based, Macaca mulatta; settings: rhesus monkey, in vivo
[33] = Oral bioavailability in monkey at 1 mg/kg; format: ADME, organism-based, Macaca mulatta; settings: rhesus monkey, in vivo
[34] = test system: Rattus norvegicus; test: Antidiabetic activity in Zucker fatty rat assessed as decrease in plasma glucose excursion at 0.03 to 1 mg/kg, po administered 30 mins prior to glucose challenge by oral glucose tolerance test; format: functional, organism-based
[35] = test system: Rattus norvegicus; test: Antidiabetic activity in Zucker fatty rat assessed as decrease in AUC (0 to 60 mins) of plasma glucose level at 0.03 to 1 mg/kg, po administered 30 mins prior to glucose challenge by oral glucose tolerance test; format: functional, organism-based
[36] = test system: Rattus norvegicus; test: Antidiabetic activity in Zucker fatty rat assessed as normalization of glucose excursion at 0.03 mg/kg, po administered 30 mins prior to glucose challenge by oral glucose tolerance test relative to lean-control; format: functional, organism-based; set-up: dose 0.03 mg/kg
[37] = test system: Rattus norvegicus; test: Inhibition of DPP4 in po dosed Wistar rat plasma using GLY-Pro-MCA as substrate after 48 hrs by fluorescence assay; format: functional, organism-based
[38] = test system: Rattus norvegicus; test: Sustained inhibition of DPP4 in Wistar rat plasma using GLY-Pro-MCA as substrate at 1 mg/kg, po measured up to 24 hrs by fluorescence assay; format: functional, organism-based; set-up: dose 1 mg/kg

Chain of Dipeptidyl peptidase 4 (P14740 whole entry): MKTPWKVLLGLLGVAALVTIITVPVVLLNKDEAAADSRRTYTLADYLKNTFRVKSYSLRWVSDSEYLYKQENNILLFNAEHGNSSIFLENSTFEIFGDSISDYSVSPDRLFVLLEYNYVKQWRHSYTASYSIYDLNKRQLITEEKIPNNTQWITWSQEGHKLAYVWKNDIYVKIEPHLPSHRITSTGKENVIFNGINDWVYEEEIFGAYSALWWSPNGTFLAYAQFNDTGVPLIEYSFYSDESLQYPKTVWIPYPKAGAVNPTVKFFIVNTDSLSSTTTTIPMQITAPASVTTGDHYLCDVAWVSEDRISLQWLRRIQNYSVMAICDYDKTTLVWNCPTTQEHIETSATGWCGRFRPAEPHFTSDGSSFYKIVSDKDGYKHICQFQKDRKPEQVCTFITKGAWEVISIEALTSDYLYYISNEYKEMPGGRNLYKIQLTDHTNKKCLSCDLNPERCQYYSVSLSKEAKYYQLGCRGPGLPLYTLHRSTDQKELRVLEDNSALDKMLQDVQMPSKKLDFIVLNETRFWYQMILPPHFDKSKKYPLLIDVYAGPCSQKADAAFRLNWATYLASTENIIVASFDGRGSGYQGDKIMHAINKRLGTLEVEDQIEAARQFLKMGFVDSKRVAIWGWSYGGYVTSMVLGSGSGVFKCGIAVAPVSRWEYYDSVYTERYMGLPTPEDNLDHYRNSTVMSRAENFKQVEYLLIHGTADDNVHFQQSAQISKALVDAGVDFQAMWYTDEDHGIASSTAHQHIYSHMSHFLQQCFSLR

IC50 [1]: 14 nM
SMILES: Cc1cc(N2CCN([C@@H]3CN[C@H](C(=O)N4CCSC4)C3)CC2)n(-c2ccc(C#N)cn2)n1

IC50 [1]: 5.4 nM
SMILES: O=C([C@@H]1C[C@H](N2CCN(c3nc(-c4ccccc4)cs3)CC2)CN1)N1CCSC1

IC50 [1]: 0.69 nM
SMILES: O=C([C@@H]1C[C@H](N2CCN(c3ccnn3-c3ccccc3)CC2)CN1)N1CCSC1
inhibition in vivo at 3 µmol/kg [2]: 90.6% | inhibition in vivo at 3 µmol/kg [3]: 50.8%

IC50 [1]: 3.1 nM
SMILES: O=C([C@@H]1C[C@H](N2CCN(c3nnnn3C3CCCCC3)CC2)CN1)N1CCSC1
inhibition in vivo at 3 µmol/kg [2]: 25.6% | inhibition in vivo at 3 µmol/kg [3]: 10.5%

SMILES: Cc1cc(N2CCN([C@@H]3CN[C@H](C(=O)N4CCSC4)C3)CC2)n(-c2ccccc2)n1 [TENELIGLIPTIN]
inhibition in vivo at 3 µmol/kg [2]: 94.8% | inhibition in vivo at 3 µmol/kg [3]: 78.3%

IC50 [1]: 0.49 nM
SMILES: Cc1cc(N2CCN([C@@H]3CN[C@H](C(=O)N4CCSC4)C3)CC2)n(-c2cccc(F)c2)n1
inhibition in vivo at 3 µmol/kg [2]: 96.1% | inhibition in vivo at 3 µmol/kg [3]: 75.1%

SMILES: O=C([C@@H]1C[C@H](N2CCN(c3cc(C(F)(F)F)nn3-c3ccccc3)CC2)CN1)N1CCSC1
inhibition in vivo at 3 µmol/kg [2]: 87.4% | inhibition in vivo at 3 µmol/kg [3]: 81.8%

SMILES: O=C([C@@H]1C[C@H](N2CCN(c3ccccn3)CC2)CN1)N1CCSC1
inhibition in vivo at 3 µmol/kg [2]: 62.7% | inhibition in vivo at 3 µmol/kg [3]: 19.7%

IC50 [1]: 0.19 nM
SMILES: O=C([C@@H]1C[C@H](N2CCN(c3nccn3-c3ccccc3)CC2)CN1)N1CCSC1
inhibition in vivo at 3 µmol/kg [2]: 59.3% | inhibition in vivo at 3 µmol/kg [3]: 58%

IC50 [1]: 0.77 nM
SMILES: Cc1cc(N2CCN([C@@H]3CN[C@H](C(=O)N4CCSC4)C3)CC2)n(-c2cccnc2)n1
inhibition in vivo at 3 µmol/kg [2]: 66.9% | inhibition in vivo at 3 µmol/kg [3]: 40.8%

IC50 [1]: 0.18 nM
SMILES: O=C([C@@H]1C[C@H](N2CCN(c3nnnn3-c3ccccc3)CC2)CN1)N1CCSC1
inhibition in vivo at 3 µmol/kg [2]: 85.1% | inhibition in vivo at 3 µmol/kg [3]: 70.7%

IC50 [1]: 13 nM
SMILES: Cc1cc(N2CCN([C@@H]3CN[C@H](C(=O)N4CCSC4)C3)CC2)n(-c2ccc(C#N)cc2)n1

IC50 [1]: 4.7 nM
SMILES: Cc1cc(N2CCN([C@@H]3CN[C@H](C(=O)N4CCSC4)C3)CC2)n(-c2ccncc2)n1

IC50 [1]: 2.5 nM
SMILES: O=C([C@@H]1C[C@H](N2CCC(c3cc(C(F)(F)F)nn3-c3ccccc3)CC2)CN1)N1CCSC1

AUC(0-inf) [4]: 1570 ng·h/mL | bioavailability [5]: 85.9% | AUC(0-inf) [6]: 295 ng·h/mL | AUC(0-inf) [7]: 613 ng·h/mL | AUC(0-inf) [8]: 673 ng·h/mL | Tmax [9]: 0.88 h | Tmax [10]: 0.75 h | Tmax [11]: 0.75 h | Tmax [12]: 0.5 h | Tmax [13]: 1.38 h | Tmax [14]: 0.88 h | Cmax [15]: 5.48 ng/mL | Cmax [16]: 20.6 ng/mL | Cmax [17]: 152 ng/mL | Cmax [18]: 28.3 ng/mL | Cmax [19]: 85.1 ng/mL | Cmax [20]: 274 ng/mL | half-life [21]: 15.8 h | half-life [22]: 8.97 h | half-life [23]: 8.43 h | half-life [24]: 18.9 h | half-life [25]: 15.2 h | half-life [26]: 16.1 h | AUC(0-inf) [27]: 91.8 ng·h/mL | AUC(0-inf) [28]: 202 ng·h/mL | bioavailability [29]: 63% | bioavailability [30]: 62.9% | bioavailability [31]: 83.2% | bioavailability [32]: 57.6% | bioavailability [33]: 44.1%
SMILES: Br.Cc1cc(N2CCN([C@@H]3CN[C@H](C(=O)N4CCSC4)C3)CC2)n(-c2ccccc2)n1

SMILES: Cc1cc(N2CCN([C@@H]3CN[C@H](C(=O)N4CCSC4)C3)CC2)n(-c2ccccn2)n1
inhibition in vivo at 3 µmol/kg [2]: 83% | inhibition in vivo at 3 µmol/kg [3]: 53.7%

IC50 [1]: 2.3 nM
SMILES: Cc1cc(N2CCN([C@@H]3CN[C@H](C(=O)N4CCSC4)C3)CC2)n(-c2ccc(F)cc2)n1

IC50 [1]: 2.9 nM
SMILES: O=C([C@@H]1C[C@H](N2CCC(c3nnnn3-c3ccccc3)CC2)CN1)N1CCSC1

SMILES: O=C([C@@H]1C[C@H](N2CCN(c3ccnc4ccccc34)CC2)CN1)N1CCSC1
inhibition in vivo at 3 µmol/kg [2]: 29.7% | inhibition in vivo at 3 µmol/kg [3]: 12.9%

IC50 [1]: 0.53 nM
SMILES: Cc1cc(N2CCN([C@@H]3CN[C@H](C(=O)N4CCSC4)C3)CC2)n(-c2ccccc2F)n1
inhibition in vivo at 3 µmol/kg [2]: 75.9% | inhibition in vivo at 3 µmol/kg [3]: 34.7%

IC50 [1]: 2.9 nM
SMILES: Cc1cc(N2CCN([C@@H]3CN[C@H](C(=O)N4CCSC4)C3)CC2)n(-c2ccc(Cl)cc2)n1

SMILES: Cc1cc(N2CCN([C@@H]3CN[C@H](C(=O)N4CCSC4)C3)CC2)n(-c2ccccc2)n1
Activity [34]: Active | Activity [35]: Active | Activity [36]: Active | inhibition [37]: Dose-dependent effect | inhibition [38]: Active
